Reference: patent US20110144125A1, “Anti-Arrhythmia Agents, Methods of Their Use, Methods of Their Identification and Kits Therefore” (THE UAB RESEARCH FOUNDATION, priority 2008, published 2011)
Values joined by “and” are separate entries in the source; they are usually repeats but may differ in a detail not shown here. Identical values can stand only once. “Also recorded” adds a separate entry of the source. Like-named read-outs stand apart in the source and are kept apart here.

Tests used:
rat left atria = experiment: Spontaneous tachycardic activity (STA) in isolated rat left atria exposed to 2-APB under increased calcium load
Method: Male Sprague-Dawley rats (325-400 g) were anesthetized with intra-peritoneal pentobarbital (0.1 g/kg). Their right and left atria were isolated, superfused at 30° C. in Krebs-Henseleit buffer, and nearly isometric forces of contraction were measured from these muscles (Wolkowicz et al., 2002). 2-APB was prepared as a 150 mM dimethyl sulfoxide stock.
Left atria (n=8 per group) were paced at 3 Hz and (i) titrated with 0 to 30 nM isoproterenol (Ahlquist, 1970) or (ii) exposed to 3 μM forskolin (Laurenza et al., 1980). Left atrial force and frequency of contraction, the time to peak tension and relaxation times were recorded after a 3-5 min exposure to forskolin or to any concentration of isoproterenol. The 3 Hz pacing stimulus was interrupted at the end of these protocols to measure SMEs.
Left atria (n=10 per group) were paced at 0.1 Hz and treated with (i) 20 μM 2-APB for 10 min, (ii) with 30 nM isoproterenol for 5 min followed by 20 μM 2-APB for 10 min, and (iii) with 3 μM forskolin for 5 min followed by 20 μM 2-APB for 10 min.
Left atrial contraction and relaxation times were recorded at these five times, the pacing stimulus was stopped and rates of SMA were recorded. To determine whether initial pacing rate affects left atrial response to 2-APB and isoproterenol, left atria (n=5-7 per group) were paced at 3 Hz and (i) remained untreated for 15 min, (ii) were treated with 20 μM 2-APB alone for 10 min, or (ii) were treated with 30 nM isoproterenol for 5 min followed by 20 μM 2-APB for 10 min. Atrial mechanical function was measured at these four times; the pacing stimulus then was stopped and rates of SMA were recorded.
Left atria (n=6 per group) were paced at 3 Hz, titrated with 0 to 300 nM (−)BayK 8644 ([…]-1,4-Dihydro-2,6-dimethyl-5-nitro-4-[2-(trifluormethyl)phenyl]-3-pyridinecarboxylic acid methyl ester; Franckowiak et al. 1985) or FPL-64176 ((2,5-Dimethyl-4-[2-(phenylmethyl)benzoyl]-111-pyrrole-3-carboxylic acid methyl ester; Zheng et al., 1991) and their mechanical function and rates of SMA were recorded after a 5 min exposure to any concentration of slow calcium channel activator.
Left atria (n=8 per group) were paced at 0.1 Hz, exposed to 300 nM BayK 8644 or FPL-64176 for 5 min followed by 20 μM 2-APB for 10 min. Atrial mechanical function was recorded at this time; the pacing stimulus then was stopped and rates of SMA were recorded.
To test whether ryanodine receptor calcium leak produces SMA, left atria (n=6 per group) were paced at 0.1 Hz, treated with 0 or 300 nM BayK 8644 for 5 min, and then exposed to 600 nM ryanodine (Sutko et al., 1997). Atrial mechanical function and rates of SMA were recorded 20 min after exposure to ryanodine.
Rates of SMA were measured 5 min later.
Left atria (n=7) were paced at 3 Hz, treated with 120 μM ouabain (Illanes and Marshall, 1964), and any change in mechanical function was recorded at a new steady state, ˜10 min later. These atria were exposed to 20 μM 2-APB and their mechanical function and rates of SMA were recorded 10 min later.
3 Hz-paced left atria (n=9 per group) were superfused (i) in Krebs-Henseleit alone or (ii) they were treated with 20 μM 2-APB for 10 min, (iii) with 300 nM BayK 8644 for 10 min and with 20 μM 2-APB for 10 min, or (iv) they were treated with 300 nM BayK 8644 and 20 μM 2-APB for 10 min, then with 70 μM zatebradine (3-[3-[[2-(3,4-Dimethoxyphenyl)ethyl]methylamino] propyl]-1,3,4,5-tetrahydro-7,8,-dimethoxy-2H-3-benzazepin-2-one hydrochloride) for 10 min (Baruscotti et al., 2005). Pacing was interrupted at these times and rates of SMA were recorded.

[1] = test system: isolated atrial and ventricular muscle; conditions: >20 μM 2-APB with an agent that increases myocyte calcium load
Method: Specifically, isolated, superfused heart muscle, atrial or ventricular, treated with an appropriate concentration of 2-APB (>20 μM) and with an agent that increases myocyte calcium load was exposed to external pacing that stimulates the muscle at a physiological rate and with strength just sufficient to capture it.

[2] = test system: right ventricular muscle strips and right or left ventricular papillary muscles; experiment: Ventricular muscle model of SMA and STA; design: species or system rat; conditions: paced at 0.5 Hz, added to the superfusate in appropriate amounts
Excerpt: To further establish this model as a general test for arrhythmic and anti-arrhythmic agents, right ventricular muscle strips and right or left ventricular papillary muscles were isolated from anesthetized rats as cardiac muscle exemplars using methods known to persons skilled in the art. Additional exemplars could include ventricular or atrial conduction system cells and the SAN itself. These muscles were then superfused as described above and paced at 0.5 Hz.

[3] = test system: rat left atrial appendage; experiment: ATXII-induced triggered activity and transition to automaticity in left atrial appendage; conditions: ATXII-treated appendages, ˜25 μM 2-APB
Excerpt: There are two types of afterdepolarizations; early afterdepolarizations (EADs) that occur early during repolarization and delayed afterdepolarizations (DADs) that occur in fully repolarized, resting myocytes (FIG. 4). Both EADs and DADs are defined as “triggered” activities as they require a preceding normal action potential to occur (FIG. 3B). One model to elicit EADs is to expose heart muscle or myocytes to Anemonia sulcata Toxin II (ATX II). This 47 amino acid peptide specifically enhances late sodium current and prolongs the action potential duration (FIG. 3D; middle panel). This leads to calcium loading of heart muscle followed by EADs during phase 2 or phase 3 of the action potential (FIGS. 3D & 5). These EADs, if of sufficient magnitude, produce ectopic mechanical events (FIG. 3B; ‡).
In embodiments of the assay an agent to induce arrhythmia will be introduced in the muscle. The arrhythmic agent may be chemical or physical. If the agent is chemical, it can be any chemical agent known by those skilled in the art to induce arrhythmia. The chemical agent will be introduced at a concentration sufficient to induce arrhythmia. If a certain type of arrhythmia is the subject of the assay (for example, triggered activity, tachycardia or any other type of arrhythmia), then the agent should be present at a concentration sufficient to produce the certain type of arrhythmia. One acceptable agent is anemone toxin II (“ATX II,”), the toxin of Anemone sulcata. ATX II is a sodium channel regulator.
It was tested whether the altered voltage-independent calcium homeostasis which 2-APB provokes is sufficient to initiate frank automaticity from triggered activity.

[4] = 20 μM 2-APB plus 30 nM isoproterenol, 3 μM forskolin, 300 nM BayK 8644, 300 nM FPL-64176 or 120 μM ouabain, absence of pacing, 30° C.

NCCOB(c1ccccc1)c1ccccc1 [2-APB, 2-aminoethoxydiphenyl borate]
rate of STA post-washing (rat left atria): 0.7±0.4 contractions/min
rate of STA pre-washing (rat left atria): 224±12 contractions/min
mechanical activity under physiological-rate pacing [1]: disorganized, fibrillation-like mechanical activity
ventricular SMA [2]: ventricular SMA was observed
transition from triggered activity to STA [3]: STA began to occur

COC(=O)C1=C(C)NC(C)=C([N+](=O)[O-])[C@H]1c1ccccc1C(F)(F)F [BayK 8644, (45)-1,4-Dihydro-2,6-dimethyl-5-nitro-4-[2-(trifluormethyl)phenyl]-3-pyridinecarboxylic acid methyl ester]
rate of STA (SMA frequency) in presence of 2-APB and calcium loading agent (rat left atria): 227±10 contractions/min

COC(=O)c1c(C)[nH]c(C)c1C(=O)c1ccccc1Cc1ccccc1 [FPL-64176, 2,5-Dimethyl-4-[2-(phenylmethyl)benzoyl]-111-pyrrole-3-carboxylic acid methyl ester]
rate of STA (SMA frequency) in presence of 2-APB and calcium loading agent (rat left atria): 222±9 contractions/min

CC(C)NCC(O)c1ccc(O)c(O)c1 (stereo not shown) [isoproterenol]
rate of STA (SMA frequency) in presence of 2-APB and calcium loading agent (rat left atria; [4]): ~230 contractions/min and 239±11 contractions/min and 225±3.6 contractions/min

C[C@@H]1O[C@@H](O[C@H]2C[C@@H](O)[C@]3(CO)[C@H]4[C@H](O)C[C@]5(C)[C@@H](C6=CC(=O)OC6)CC[C@]5(O)[C@@H]4CC[C@]3(O)C2)[C@H](O)[C@H](O)[C@H]1O [ouabain]
rate of STA (SMA frequency) in presence of 2-APB and calcium loading agent (rat left atria; [4]): 202±5.6 contractions/min

ryanodine
STA after depletion of ryanodine-sensitive calcium stores (rat left atria; BayK 8644 and 2-APB, then 600 nM ryanodine): persists; also recorded: does not terminate STA
